Assay results taken from US8952024B2, “Herbicidal pyrimidone derivatives” (E I du Pont de Nemours and Company, priority 2009, dated 2015).

How the values were obtained:
Assay type in all cases: in vivo
rice (Oryza sativa) = assay: Test B flooded paddy test; conditions: for Plant response rating, Flood, Rice: 250 g ai/ha, flooded paddy test, visual rating on 0 to 100 scale (0 no effect, 100 complete control) after 13 to 15 days; for Plant response rating, Rice: Flood (flooded paddy test), 13 to 15 days; for Rice plant response rating: Flood, 31 g ai/ha, scale 0 to 100 (0 no effect, 100 complete control)
Method in brief: (§1)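 Plants were grown to the 2-leaf stage, then pots were flooded to 3 cm above the soil and compounds were applied directly into the paddy water. That depth was held throughout. After 13 to 15 days in a greenhouse, injury was visually rated against controls on a 0–100 scale.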

[1] = system: umbrella sedge (Cyperus difformis); assay: Test B flooded paddy test; conditions: for Plant response rating, Flood, Sedge, Umbrella: 250 g ai/ha, flooded paddy test, visual rating on 0 to 100 scale (0 no effect, 100 complete control) after 13 to 15 days; for Plant response rating, Sedge, Umbrella: Flood (flooded paddy test), 13 to 15 days; for Sedge, Umbrella plant response rating: Flood, 31 g ai/ha, scale 0 to 100 (0 no effect, 100 complete control)
Method in brief: as §1

[2] = system: barnyardgrass (Echinochloa crus-galli); assay: Test B flooded paddy test; conditions: for Plant response rating, Flood, Barnyardgrass: 250 g ai/ha, flooded paddy test, visual rating on 0 to 100 scale (0 no effect, 100 complete control) after 13 to 15 days; for Plant response rating, Barnyardgrass: Flood (flooded paddy test), 13 to 15 days; for Barnyardgrass plant response rating: Flood, 31 g ai/ha, scale 0 to 100 (0 no effect, 100 complete control)
Method in brief: as §1

[3] = system: ducksalad (Heteranthera limosa); assay: Test B flooded paddy test; conditions: for Plant response rating, Flood, Ducksalad: 250 g ai/ha, flooded paddy test, visual rating on 0 to 100 scale (0 no effect, 100 complete control) after 13 to 15 days; for Plant response rating, Ducksalad: Flood (flooded paddy test), 13 to 15 days; for Ducksalad plant response rating: Flood, 31 g ai/ha, scale 0 to 100 (0 no effect, 100 complete control)
Method in brief: as §1

[4] = system: giant foxtail (Setaria faberii); assay: Test A pre-/postemergence plant response; conditions: for Foxtail, Giant plant response rating: visual injury, 0 to 100 scale (0 no effect, 100 complete control), approx. ten days
Method in brief: (§2)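 Approximately ten days after concurrent pre- and postemergence spraying in a greenhouse, plants were compared with untreated controls and rated visually for injury, 0 = no effect to 100 = complete control. Preemergence spray was directed onto loam/sand soil; postemergence targeted 1–2 leaf seedlings.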

[5] = system: pigweed (Amaranthus retroflexus); assay: Test A pre-/postemergence plant response; conditions: for Pigweed plant response rating: visual injury, 0 to 100 scale (0 no effect, 100 complete control), approx. ten days
Method in brief: as §2

[6] = system: large crabgrass (Digitaria sanguinalis); assay: Test A pre-/postemergence plant response; conditions: for Crabgrass, Large plant response rating: visual injury, 0 to 100 scale (0 no effect, 100 complete control), approx. ten days
Method in brief: as §2

[7] = system: wheat (Triticum aestivum); assay: Test A pre-/postemergence plant response; conditions: for Wheat plant response rating: visual injury, 0 to 100 scale (0 no effect, 100 complete control), approx. ten days
Method in brief: as §2

[8] = system: velvetleaf (Abutilon theophrasti); assay: Test A pre-/postemergence plant response; conditions: for Velvetleaf plant response rating: visual injury, 0 to 100 scale (0 no effect, 100 complete control), approx. ten days
Method in brief: as §2

corn (Zea mays) = assay: Test A pre-/postemergence plant response; conditions: for Corn plant response rating: visual injury, 0 to 100 scale (0 no effect, 100 complete control), approx. ten days
Method in brief: as §2

[9] = system: morningglory (Ipomoea spp.); assay: Test A pre-/postemergence plant response; conditions: for Morningglory plant response rating: visual injury, 0 to 100 scale (0 no effect, 100 complete control), approx. ten days
Method in brief: as §2

[10] = system: barnyardgrass (Echinochloa crus-galli); assay: Test A pre-/postemergence plant response; conditions: for Barnyardgrass plant response rating: visual injury, 0 to 100 scale (0 no effect, 100 complete control), approx. ten days
Method in brief: as §2

[11] = 62 g ai/ha, scale of 0 to 100 where 0 is no effect and 100 is complete control
[12] = 125 g ai/ha, scale 0 to 100, 0 is no effect, 100 is complete control
[13] = Postemergence, 125 g ai/ha, 0 to 100 scale where 0 is no effect and 100 is complete control
[14] = Preemergence, 125 g ai/ha, 0 to 100 scale, 0 = no effect, 100 = complete control
[15] = Preemergence, 500 g ai/ha, 0 to 100 scale, 0 = no effect, 100 = complete control

With O=C1CCCC(O)=C1C(=O)c1cnc(-c2ccc(F)cc2)n(C2CCCCC2)c1=O [Compound 197] the “Plant response rating, Flood, Rice” value (rice (Oryza sativa)) was 45, the “Plant response rating, Rice” value (rice (Oryza sativa); [11]) was 0 and the “Plant response rating, Rice” value (rice (Oryza sativa); [12]) was 30. For the same compound, the “Rice plant response rating” value (rice (Oryza sativa)) was 0, the “Plant response rating, Flood, Sedge, Umbrella” value [1] was 85 and the “Plant response rating, Sedge, Umbrella” value [1, 11] was 70. The “Plant response rating, Sedge, Umbrella” value [1, 12] was 75, the “Sedge, Umbrella plant response rating” value [1] was 65 and the “Plant response rating, Flood, Barnyardgrass” value [2] was 30. The “Plant response rating, Barnyardgrass” value [2, 11] was 0, the “Plant response rating, Barnyardgrass” value [2, 12] was 20 and the “Barnyardgrass plant response rating” value [2] was 0. The “Plant response rating, Flood, Ducksalad” value [3] was 85, the “Plant response rating, Ducksalad” value [3, 11] was 65 and the “Plant response rating, Ducksalad” value [3, 12] was 80. For the same compound, the “Ducksalad plant response rating” value [3] was 65, the “Plant response rating, Foxtail, Giant” value [4, 13] was 80 and the “Foxtail, Giant plant response rating” value ([4]; Postemergence, 500 g ai/ha) was 100. The “Plant response rating, Foxtail, Giant” value [4, 14] was 0, the “Plant response rating, Foxtail, Giant” value [4, 15] was 50 and the “Plant response rating, Pigweed” value [5, 13] was 100. The “Pigweed plant response rating” value ([5]; Postemergence, 500 g ai/ha) was 100, the “Plant response rating, Pigweed” value [5, 14] was 20 and the “Plant response rating, Pigweed” value [5, 15] was 100. For the same compound, the “Plant response rating, Crabgrass, Large” value [6, 13] was 70, the “Crabgrass, Large plant response rating” value ([6]; Postemergence, 500 g ai/ha) was 100 and the “Plant response rating, Crabgrass, Large” value [6, 14] was 0. For the same compound, the “Plant response rating, Crabgrass, Large” value [6, 15] was 60, the “Plant response rating, Wheat” value [7, 13] was 0 and the “Wheat plant response rating” value ([7]; Postemergence, 500 g ai/ha) was 0. For the same compound, the “Plant response rating, Wheat” value [7, 14] was 0, the “Plant response rating, Wheat” value [7, 15] was 20 and the “Plant response rating, Velvetleaf” value [8, 13] was 100. The “Velvetleaf plant response rating” value ([8]; Postemergence, 500 g ai/ha) was 100, the “Plant response rating, Velvetleaf” value [8, 14] was 40 and the “Plant response rating, Velvetleaf” value [8, 15] was 90. The “Plant response rating, Corn” value (corn (Zea mays); [13]) was 20, the “Corn plant response rating” value (corn (Zea mays); Postemergence, 500 g ai/ha) was 50 and the “Plant response rating, Corn” value (corn (Zea mays); [14]) was 0. For the same compound, the “Plant response rating, Corn” value (corn (Zea mays); [15]) was 30, the “Plant response rating, Morningglory” value [9, 13] was 100 and the “Morningglory plant response rating” value ([9]; Postemergence, 500 g ai/ha) was 100. For the same compound, the “Plant response rating, Morningglory” value [9, 14] was 0, the “Plant response rating, Morningglory” value [9, 15] was 60 and the “Plant response rating, Barnyardgrass” value [10, 13] was 80. The “Barnyardgrass plant response rating” value ([10]; Postemergence, 500 g ai/ha) was 100, the “Plant response rating, Barnyardgrass” value [10, 14] was 0 and the “Plant response rating, Barnyardgrass” value [10, 15] was 40.
With COc1ccc(-n2c(-c3ccccc3)ncc(C(=O)C3=C(O)CCCC3=O)c2=O)cc1OC [Compound 218] the “Plant response rating, Flood, Rice” value (rice (Oryza sativa)) was 15, the “Plant response rating, Rice” value (rice (Oryza sativa); [11]) was 0 and the “Plant response rating, Rice” value (rice (Oryza sativa); [12]) was 10. The “Rice plant response rating” value (rice (Oryza sativa)) was 0, the “Plant response rating, Flood, Sedge, Umbrella” value [1] was 85 and the “Plant response rating, Sedge, Umbrella” value [1, 11] was 80. The “Plant response rating, Sedge, Umbrella” value [1, 12] was 85, the “Sedge, Umbrella plant response rating” value [1] was 75 and the “Plant response rating, Flood, Barnyardgrass” value [2] was 40. The “Plant response rating, Barnyardgrass” value [2, 11] was 0, the “Plant response rating, Barnyardgrass” value [2, 12] was 30 and the “Barnyardgrass plant response rating” value [2] was 0. For the same compound, the “Plant response rating, Flood, Ducksalad” value [3] was 95, the “Plant response rating, Ducksalad” value [3, 11] was 80 and the “Plant response rating, Ducksalad” value [3, 12] was 85. For the same compound, the “Ducksalad plant response rating” value [3] was 75, the “Plant response rating, Foxtail, Giant” value [4, 13] was 40 and the “Foxtail, Giant plant response rating” value ([4]; Postemergence, 500 g ai/ha) was 70. For the same compound, the “Plant response rating, Foxtail, Giant” value [4, 14] was 0, the “Plant response rating, Foxtail, Giant” value [4, 15] was 50 and the “Plant response rating, Pigweed” value [5, 13] was 100. The “Pigweed plant response rating” value ([5]; Postemergence, 500 g ai/ha) was 100, the “Plant response rating, Pigweed” value [5, 14] was 20 and the “Plant response rating, Pigweed” value [5, 15] was 90. For the same compound, the “Plant response rating, Crabgrass, Large” value [6, 13] was 20, the “Crabgrass, Large plant response rating” value ([6]; Postemergence, 500 g ai/ha) was 70 and the “Plant response rating, Crabgrass, Large” value [6, 14] was 10. For the same compound, the “Plant response rating, Crabgrass, Large” value [6, 15] was 80, the “Plant response rating, Wheat” value [7, 13] was 0 and the “Wheat plant response rating” value ([7]; Postemergence, 500 g ai/ha) was 0. The “Plant response rating, Wheat” value [7, 14] was 0, the “Plant response rating, Wheat” value [7, 15] was 0 and the “Plant response rating, Velvetleaf” value [8, 13] was 100. For the same compound, the “Velvetleaf plant response rating” value ([8]; Postemergence, 500 g ai/ha) was 100, the “Plant response rating, Velvetleaf” value [8, 14] was 50 and the “Plant response rating, Velvetleaf” value [8, 15] was 90. For the same compound, the “Plant response rating, Corn” value (corn (Zea mays); [13]) was 0, the “Corn plant response rating” value (corn (Zea mays); Postemergence, 500 g ai/ha) was 70 and the “Plant response rating, Corn” value (corn (Zea mays); [14]) was 0. For the same compound, the “Plant response rating, Corn” value (corn (Zea mays); [15]) was 0, the “Plant response rating, Morningglory” value [9, 13] was 80 and the “Morningglory plant response rating” value ([9]; Postemergence, 500 g ai/ha) was 100. For the same compound, the “Plant response rating, Morningglory” value [9, 14] was 0, the “Plant response rating, Morningglory” value [9, 15] was 80 and the “Plant response rating, Barnyardgrass” value [10, 13] was 80. For the same compound, the “Barnyardgrass plant response rating” value ([10]; Postemergence, 500 g ai/ha) was 90, the “Plant response rating, Barnyardgrass” value [10, 14] was 20 and the “Plant response rating, Barnyardgrass” value [10, 15] was 100.
